Data set [1] relates to Huh-7. As to the kind of experiment: Anticancer activity against human Huh-7 cells assessed as inhibition of cell proliferation by MTT assay. In kind it is functional, cell-based.
Data set [2] has as its system SK-HEP1. Description: Anticancer activity against human SK-HEP1 cells assessed as inhibition of cell proliferation by MTT assay. In kind it is functional, cell-based.
Data set [3] is described as follows: Cytotoxicity against human WI-38 cells assessed as inhibition of cell proliferation by MTT assay. Format: toxicity, cell-based.
The subject of data set [4] is SW480. As to the kind of experiment: Anticancer activity against human SW480 cells assessed as inhibition of cell proliferation by MTT assay. In kind it is functional, cell-based.
Data set [5] has as its system RKO. Description: Anticancer activity against human RKO cells assessed as inhibition of cell proliferation by MTT assay. In kind it is functional, cell-based.
Data set [6] concerns HT-29. As to the kind of experiment: Anticancer activity against human HT-29 cells assessed as inhibition of cell proliferation by MTT assay. In kind it is functional, cell-based.
Data set [7] relates to HCT-116. As to the kind of experiment: Anticancer activity against human HCT-116 cells assessed as inhibition of cell proliferation by MTT assay. Format: functional, cell-based.
In data set [8] the test system is MGC-803. As to the kind of experiment: Anticancer activity against human MGC-803 cells assessed as inhibition of cell proliferation by MTT assay. Format: functional, cell-based.
For data set [9], the system named is A549. As to the kind of experiment: Anticancer activity against human A549 cells assessed as inhibition of cell proliferation by MTT assay. In kind it is functional, cell-based.
Data set [10] deals with LoVo. As to the kind of experiment: Anticancer activity against human LoVo cells assessed as inhibition of cell proliferation by MTT assay. Format: functional, cell-based.

SMILES strings stand for the structures.

Turning to `Cc1ccc(COC(=O)CC[C@@H](C)[C@H]2CC[C@H]3[C@@H]4[C@H](O)C[C@@H]5C[C@H](O)CC[C@]5(C)[C@H]4CC[C@]23C)cc1`, the concentration for half-maximal inhibition (IC50) is 27.2 µM in data set [1]; 54.9 µM in data set [2]; > 200 µM in [3]; 43.1 µM in [4]; 42.1 µM in data set [5]; 25.4 µM in data set [6]. The IC50 in data set [7] worked out at 53.7 µM; in [8], 37.5 µM; in data set [9], 86.6 µM; in data set [10], 27.4 µM.

On to `CC(=O)Nc1ccc(OC(=O)CC[C@@H](C)[C@H]2CC[C@H]3[C@@H]4[C@H](O)C[C@@H]5C[C@H](O)CC[C@]5(C)[C@H]4C[C@H](O)[C@]23C)cc1`, for which the IC50 in [1] is 70.4 µM; in [2], 41.1 µM; in [3] it was > 200 µM; in data set [4] it was 38.7 µM; in data set [5], 36.3 µM; in data set [6], 53.3 µM. The IC50 in data set [7] stood at 54.3 µM; in data set [8] it was 36.7 µM; in [9], 59.4 µM; in data set [10], 58 µM.

Turning to `C[C@H](CCC(=O)OCc1ccc([N+](=O)[O-])cc1)[C@H]1CC[C@H]2[C@@H]3[C@H](O)C[C@@H]4C[C@H](O)CC[C@]4(C)[C@H]3CC[C@]12C`, the IC50 in [1] is 44.6 µM; in data set [2] it was 111 µM; in [3], > 200 µM; in data set [4], 44.1 µM; in data set [5] it was 43.2 µM; in [6], 29.6 µM. For the same molecule, the IC50 is 40.4 µM in [7], 50.6 µM in data set [8], 87.2 µM in [9] and 30.4 µM in [10].

`COc1cc(COC(=O)CC[C@@H](C)[C@H]2CC[C@H]3[C@@H]4[C@H](O)C[C@@H]5C[C@H](O)CC[C@]5(C)[C@H]4CC[C@]23C)cc(OC)c1`: the 50% inhibitory concentration (IC50) in [1] was 63.1 µM; in data set [2] it was 65.1 µM; in [3] it was > 200 µM; in [4], 37.6 µM; in [5], 45.4 µM; in [6], 26 µM. Moreover, the IC50 in data set [7] stood at 45 µM; in data set [8], 36.6 µM; in data set [9], 99.6 µM; in data set [10], 21.3 µM.

For the molecule `C[C@H](CCC(=O)OCc1cccc(O)c1)[C@H]1CC[C@H]2[C@@H]3[C@H](O)C[C@@H]4C[C@H](O)CC[C@]4(C)[C@H]3C[C@H](O)[C@]12C`, the IC50 in [1] is 102 µM; in data set [2], 61.8 µM; in data set [3], > 200 µM; in data set [4] it was 39.3 µM; in data set [5] it was 47.6 µM; in [6], 24.3 µM. For the same molecule, the IC50 was 33 µM in data set [7], 54.9 µM in [8], 47.8 µM in [9] and 28.7 µM in [10].

`CC(=O)Oc1ccc(OC(=O)CC[C@@H](C)[C@H]2CC[C@H]3[C@@H]4[C@@H](O)C[C@@H]5C[C@@H](O)CC[C@]5(C)[C@H]4CC[C@]23C)cc1`: the IC50 in data set [1] was 185 µM; in [2] it was 177 µM; in [3] it was > 200 µM; in [4] it was > 150 µM; in [5], 187 µM; in [6], 123 µM. Also, the IC50 in [7] is 102 µM; in data set [8], 111 µM; in [9] it was 187 µM; in data set [10], 168 µM.

As to `CC(=O)Oc1ccc(OC(=O)CC[C@@H](C)[C@H]2CC[C@H]3[C@@H]4[C@H](O)C[C@@H]5C[C@H](O)CC[C@]5(C)[C@H]4CC[C@]23C)cc1`, the IC50 was 60.7 µM in [1]; 85 µM in data set [2]; > 200 µM in data set [3]; 100 µM in data set [4]; 142 µM in data set [5]; 56.3 µM in [6]. In addition, the IC50 was 149 µM in [7], 109 µM in [8], > 200 µM in data set [9] and 76.9 µM in [10].

Turning to `C[C@H](CCC(=O)OCc1cccc(O)c1)[C@H]1CC[C@H]2[C@@H]3[C@@H](O)C[C@@H]4C[C@@H](O)CC[C@]4(C)[C@H]3CC[C@]12C`, the IC50 was 152 µM in data set [1]; 155 µM in [2]; > 200 µM in data set [3]; 99 µM in data set [4]; 68.8 µM in [5]; 58.8 µM in data set [6]. The IC50 in data set [7] is 54.2 µM; in data set [8] it was 59.4 µM; in data set [9], > 200 µM; in [10] it was 44.9 µM.

Turning to `C[C@H](CCC(=O)O)[C@H]1CC[C@H]2[C@@H]3[C@H](O)C[C@@H]4C[C@H](O)CC[C@]4(C)[C@H]3CC[C@]12C` [CHENODIOL], the IC50 in data set [1], in data set [2], in data set [4], in data set [5], in data set [6] and in [7] was > 200 µM in each case. In addition, the IC50 in data set [8], in data set [9] and in [10] was > 200 µM throughout.

Turning to `COC(=O)[C@H](CCSC)NC(=O)CC[C@@H](C)[C@H]1CC[C@H]2[C@@H]3[C@H](O)C[C@@H]4C[C@H](O)CC[C@]4(C)[C@H]3C[C@H](O)[C@]12C`, the half-inhibitory concentration (IC50) was 190 µM in [1]; 173 µM in data set [2]; > 200 µM in data set [3]; 64.7 µM in data set [4]; 97.3 µM in data set [5]; 127 µM in [6]. In addition, the IC50 is 85.2 µM in [7], 96.9 µM in data set [8], > 200 µM in [9] and 51.6 µM in data set [10].

As to `C[C@H](CCC(=O)O)[C@H]1CC[C@H]2[C@@H]3[C@H](O)C[C@@H]4C[C@H](O)CC[C@]4(C)[C@H]3C[C@H](O)[C@]12C` [CHOLIC ACID], the IC50 in data set [1], in data set [2], in data set [4], in data set [5], in data set [6] and in [7] was > 200 µM throughout. Also, the IC50 in data set [8], in data set [9] and in data set [10] was > 200 µM throughout.

Take `C[C@H](CCC(=O)O)[C@H]1CC[C@H]2[C@@H]3[C@@H](O)C[C@@H]4C[C@H](O)CC[C@]4(C)[C@H]3CC[C@]12C` [URSODIOL]: the half-maximal inhibitory concentration (IC50) in data set [1], in data set [2], in [4], in data set [5], in data set [6] and in data set [7] was > 200 µM throughout. Further, the IC50 in data set [8], in data set [9] and in [10] was > 200 µM in each case.

Turning to `C[C@H](CCC(=O)O)[C@H]1CC[C@H]2[C@@H]3CC[C@@H]4C[C@H](O)CC[C@]4(C)[C@H]3CC[C@]12C` [LITHOCHOLIC ACID], the 50% inhibitory concentration (IC50) in [1], in data set [2], in data set [4], in data set [5], in data set [6] and in [7] was > 200 µM throughout. For the same molecule, the half-inhibitory concentration (IC50) in [8], in [9] and in [10] was > 200 µM each time.

Values taken from ChEMBL document CHEMBL5104211, “Design and synthesis of bile acid derivatives and their activity against colon cancer” (RSC Med Chem, 2022).
